In PubChem BioAssay (NCI) one finds TGI and GI50 data, which are given here for 15 compounds.

Test systems include OVCAR-3 ovarian; MCF7 breast; SN12C renal; NCI-H23 lung; NCI-H522 lung; COLO 205 colon; HS 578T breast; MDA-MB-435; M14 melanoma; SR leukemia.
Assay in all cases: DTP human tumour cell line panel, 48 h

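A five-concentration, 48-hour dose response in 96-well plates underlies each endpoint, interpolated linearly between surrounding concentrations. At the GI50, growth is halved. TGI: total growth inhibition.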 Some results are limits rather than exact numbers.

As a reminder, the TGI is the concentration at which net growth stops. A high value points to less potent growth arrest. The GI50 is the concentration at which growth is held to half of that of the control.

With `C[n+]1c(-c2ccc(/C=N\Nc3ccnc(N/N=C/c4ccc(-c5cn6ccsc6[n+]5C)cc4)n3)cc2)cn2ccsc21`, the TGI in the test on OVCAR-3 ovarian was more than 100 µM; with MCF7 breast, more than 100 µM; with SN12C renal, more than 100 µM; in the test with NCI-H23 lung, more than 100 µM; in the test with NCI-H522 lung, more than 100 µM; in the test on COLO 205 colon it was 66.6 µM. Also, the total growth inhibition concentration (TGI) was more than 100 µM in the test with HS 578T breast, 6.94 µM in the test with MDA-MB-435, 30.4 µM in the test on M14 melanoma and 64.8 µM in the test on SR leukemia.
On to `O=Nn1c2ccccc2c2ccccc21`, for which the total growth inhibition concentration (TGI) with OVCAR-3 ovarian was more than 100 µM; with MCF7 breast, more than 100 µM; in the test with SN12C renal, more than 100 µM; in the test with NCI-H23 lung it was more than 100 µM; with NCI-H522 lung it was more than 100 µM; in the test on COLO 205 colon it was 33.2 µM. In addition, the TGI in the test with HS 578T breast, in the test with MDA-MB-435 and in the test with M14 melanoma was more than 100 µM in each case.
Turning to `CC(C)=NC(C(=O)O)C(C)(C)S` (stereo not drawn), the TGI in the test with OVCAR-3 ovarian, in the test with MCF7 breast, in the test on SN12C renal, in the test on NCI-H23 lung, in the test on NCI-H522 lung and with COLO 205 colon was more than 100 µM throughout. The TGI in the test on HS 578T breast, with MDA-MB-435, with M14 melanoma and with SR leukemia was more than 100 µM throughout.
On to `CCOC(=O)CCCc1cc(=O)c2c(C)c3[nH]c4ccc(Cl)cc4c3c(C)c2[nH]1`, for which the TGI in the test with OVCAR-3 ovarian was 34.4 µM; in the test on MCF7 breast, 47.4 µM; in the test on SN12C renal it was 95.3 µM; in the test with NCI-H23 lung it was more than 100 µM; in the test on COLO 205 colon, more than 100 µM; in the test on MDA-MB-435, 47.8 µM. Also, the TGI with M14 melanoma and in the test on SR leukemia was more than 100 µM each time.
Turning to `COc1ncnc2c(Cl)c(C(O)c3ccccc3)c(Cl)cc12` (stereo not drawn), the total growth inhibition concentration (TGI) with OVCAR-3 ovarian was more than 100 µM; in the test on MCF7 breast, more than 100 µM; with SN12C renal it was 86.8 µM; in the test with NCI-H23 lung, more than 100 µM; with NCI-H522 lung, more than 100 µM; in the test with COLO 205 colon, more than 100 µM. Further, the TGI with HS 578T breast was found to be 49.9 µM; in the test on MDA-MB-435 it was 21.3 µM; in the test with M14 melanoma it was 89.9 µM; in the test on SR leukemia, 22.7 µM.
With `OCC1NC(CO)C(O)C1O` (stereo not drawn), the TGI in the test on OVCAR-3 ovarian, in the test with MCF7 breast, in the test with SN12C renal, in the test with NCI-H23 lung, with COLO 205 colon and in the test on HS 578T breast was more than 100 µM each time. In addition, the TGI with MDA-MB-435, in the test on M14 melanoma and in the test on SR leukemia was more than 100 µM throughout.
For the compound `CC=C/C=C/[C@@H]1O[C@](O)([C@H](CC)C(=O)NC/C=C/C=C(\C)[C@@H](OC)[C@@H](C)[C@@H]2O[C@H](/C=C/C=C/C=C(\C)C(=O)c3c(O)cc[nH]c3=O)[C@H](O)[C@@H]2O)[C@H](O)[C@H](O)C1(C)C`, the concentration for total growth inhibition (TGI) with OVCAR-3 ovarian, with MCF7 breast, in the test on NCI-H23 lung, with NCI-H522 lung, with HS 578T breast and with MDA-MB-435 was more than 100 µM each time. Further, the TGI in the test on M14 melanoma and in the test with SR leukemia was more than 100 µM in each case.
As to `COc1ccc(CCn2ccc(C)n2)c(OC)c1`, the concentration for total growth inhibition (TGI) in the test on OVCAR-3 ovarian, in the test on MCF7 breast, in the test on SN12C renal, with NCI-H23 lung, in the test with COLO 205 colon and in the test on HS 578T breast was more than 100 µM throughout. Moreover, the TGI with MDA-MB-435 and in the test with M14 melanoma was more than 100 µM in each case.
Regarding `CC(C)N(CCNc1nc(C(Cl)(Cl)Cl)nc2cc(Cl)ccc12)C(C)C`, the GI50 in the test with OVCAR-3 ovarian was 1.68 µM; with MCF7 breast, 1.54 µM; in the test on SN12C renal, 1.69 µM; in the test with NCI-H23 lung, 1.61 µM; with NCI-H522 lung, 1.16 µM; in the test on COLO 205 colon, 1.8 µM. In addition, the GI50 is 1.56 µM in the test with HS 578T breast, 1.71 µM in the test with MDA-MB-435, 1.58 µM in the test with M14 melanoma and 0.926 µM in the test with SR leukemia. Moreover, the TGI with OVCAR-3 ovarian came out at 3.66 µM; in the test on MCF7 breast, 3.05 µM; in the test on SN12C renal, 3.76 µM; in the test with NCI-H23 lung, 3.47 µM; with NCI-H522 lung, 2.63 µM; with COLO 205 colon it was 3.61 µM. The TGI is 3.99 µM with HS 578T breast, 3.47 µM with MDA-MB-435, 3.19 µM with M14 melanoma and 3.11 µM in the test on SR leukemia.
In the case of `Nc1nc(N)c(N=Nc2ccccc2)c(=O)[nH]1`, the concentration for total growth inhibition (TGI) in the test on OVCAR-3 ovarian was more than 100 µM; in the test on SN12C renal it was more than 100 µM; in the test with NCI-H23 lung it was 93 µM; in the test on NCI-H522 lung, more than 100 µM; in the test on COLO 205 colon, more than 100 µM; with M14 melanoma, more than 100 µM. In addition, in the test with SR leukemia, the TGI is more than 100 µM.
As for `O=S1(=O)C[C@H](NCc2ccccc2)[C@H](NCc2ccccc2)C1`, the concentration for total growth inhibition (TGI) with OVCAR-3 ovarian is more than 100 µM; with MCF7 breast, more than 100 µM; with SN12C renal it was more than 100 µM; in the test with NCI-H23 lung, more than 100 µM; in the test on NCI-H522 lung, 68.2 µM; in the test with COLO 205 colon, more than 100 µM. Besides, the TGI in the test with HS 578T breast, in the test with MDA-MB-435, with M14 melanoma and in the test with SR leukemia was more than 100 µM each time.
`CCOP(=O)(OCC)C(Cc1c[nH]c2ccccc12)C(=O)O` (stereo not drawn): the TGI in the test with OVCAR-3 ovarian, in the test with MCF7 breast, in the test on SN12C renal, in the test with NCI-H23 lung, in the test with NCI-H522 lung and in the test on COLO 205 colon was more than 100 µM each time. Moreover, the TGI with HS 578T breast, in the test on MDA-MB-435, in the test with M14 melanoma and with SR leukemia was more than 100 µM in each case.
Consider `O=C(Nc1ccc(C(F)(F)F)cc1[N+](=O)[O-])C(=O)Nn1c(=S)[nH]c2ccccc2c1=O`, for which the total growth inhibition concentration (TGI) in the test with SN12C renal, with NCI-H23 lung, in the test on NCI-H522 lung, in the test on COLO 205 colon and in the test on SR leukemia was more than 100 µM each time.
For `Cc1ccc(S(=O)(=O)NCCCSCCN)cc1`, the TGI in the test on OVCAR-3 ovarian, in the test with MCF7 breast, in the test on SN12C renal, in the test on NCI-H23 lung, in the test on NCI-H522 lung and in the test on COLO 205 colon was more than 100 µM in each case. In addition, the TGI in the test with HS 578T breast, with MDA-MB-435, in the test with M14 melanoma and in the test with SR leukemia was more than 100 µM each time.
Turning to `COc1ccc(/C=C/c2cc(O)cc(OC3OC(CO)C(O)C(O)C3O)c2)cc1O` (stereo not drawn), the TGI in the test on OVCAR-3 ovarian, in the test with MCF7 breast, with SN12C renal, in the test on NCI-H522 lung, with COLO 205 colon and in the test with HS 578T breast was more than 100 µM each time. For the same compound, the TGI with MDA-MB-435, in the test with M14 melanoma and in the test on SR leukemia was more than 100 µM throughout.
